In paper PMC2933030 (Biochemical Journal, 2010):

Key:
[1] = system: β5 site of the proteasome; settings: cited from earlier work
[2] = system: bulk protein turnover in HCT116 cells; experiment: Bulk protein turnover assay; assay type: cell-based
[3] = system: 4xUb-Luc reporter in MDA-MB-231 cells; experiment: 4xUb-Luc reporter accumulation assay; assay type: cell-based; settings: for MDA231 4xUb-Luc Maximal induction: 8 h with compound, over DMSO control
[4] = target: human peripheral blood monocyte 20S β1i site, immunoproteasome (Homo sapiens, UniProt P28065+P40306); experiment: Purified human 20S-PA28 peptidase assay, β1i site; assay type: biochemical
Thrombin = Thrombin (Homo sapiens, UniProt P00734); experiment: Protease selectivity assay, thrombin; assay type: biochemical
[5] = target: Tissue plasminogen activator (Homo sapiens, UniProt P00750); experiment: Protease selectivity assay, tissue plasminogen activator; assay type: biochemical
Sequence of Tissue plasminogen activator (P00750 36-562): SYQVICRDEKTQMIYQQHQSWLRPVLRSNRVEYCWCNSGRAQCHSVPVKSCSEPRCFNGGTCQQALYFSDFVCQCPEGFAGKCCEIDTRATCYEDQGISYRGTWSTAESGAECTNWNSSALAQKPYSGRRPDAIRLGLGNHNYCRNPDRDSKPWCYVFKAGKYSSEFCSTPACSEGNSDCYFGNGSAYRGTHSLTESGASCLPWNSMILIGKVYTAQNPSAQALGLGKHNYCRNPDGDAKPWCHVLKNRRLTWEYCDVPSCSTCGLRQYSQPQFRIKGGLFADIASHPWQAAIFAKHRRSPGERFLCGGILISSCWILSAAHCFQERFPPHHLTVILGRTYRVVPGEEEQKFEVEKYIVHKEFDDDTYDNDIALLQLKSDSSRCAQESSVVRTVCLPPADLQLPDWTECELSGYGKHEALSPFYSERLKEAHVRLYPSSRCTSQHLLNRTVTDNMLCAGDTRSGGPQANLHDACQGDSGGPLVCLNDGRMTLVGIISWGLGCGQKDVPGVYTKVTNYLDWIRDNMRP

[6] = target: human erythrocyte 20S β1c (caspase-like) site, constitutive proteasome (Homo sapiens, UniProt P28072+Q99436); experiment: Purified human 20S-PA28 peptidase assay, β1c site; assay type: biochemical
[7] = target: human erythrocyte 20S β2c (trypsin-like) site, constitutive proteasome (Homo sapiens, UniProt P49720+Q99436); experiment: Purified human 20S-PA28 peptidase assay, β2c site; assay type: biochemical
MDA-MB-231 cells = experiment: ATPlite cell viability assay, MDA-MB-231; assay type: cell-based; settings: Homo sapiens, MDA-MB-231, 72 h, read-out: Cell viability MDA-MB-231 LC50
[8] = system: MDA-MB-231, Calu6, H460, HCT116 and HT29 cells; experiment: ATPlite cell viability assays across cancer cell lines; assay type: cell-based; settings: 72 h, read-out: LC50 values across a panel of five cancer cell lines
Cathepsin L = Cathepsin L (Homo sapiens, UniProt P07711); experiment: Protease selectivity assay, cathepsin L; assay type: biochemical
Sequence of Cathepsin L (P07711 114-333): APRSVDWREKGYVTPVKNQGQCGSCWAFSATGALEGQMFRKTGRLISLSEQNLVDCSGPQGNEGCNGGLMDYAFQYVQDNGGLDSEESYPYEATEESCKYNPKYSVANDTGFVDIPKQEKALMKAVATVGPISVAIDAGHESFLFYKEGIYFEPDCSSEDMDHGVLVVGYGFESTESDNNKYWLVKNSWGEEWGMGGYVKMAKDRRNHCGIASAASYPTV

Trypsin = experiment: Protease selectivity assay, trypsin; assay type: biochemical, human
[9] = target: human peripheral blood monocyte 20S β5i site, immunoproteasome (Homo sapiens, UniProt P20618+P28062); experiment: Purified human 20S-PA28 peptidase assay, β5i site; assay type: biochemical
[10] = target: human erythrocyte 20S β5 site (Homo sapiens, UniProt P20618+P28074); experiment: Kinetic analysis of purified 20S inhibition; assay type: biochemical
[11] = target: human peripheral blood monocyte 20S β2i site, immunoproteasome (Homo sapiens, UniProt P40306+P49720); experiment: Purified human 20S-PA28 peptidase assay, β2i site; assay type: biochemical
[12] = target: Coagulation Factor β-XIIa (Homo sapiens, UniProt P00748); experiment: Protease selectivity assay, coagulation Factor β-XIIa; assay type: biochemical
Sequence of Coagulation Factor β-XIIa (P00748 373-615 limits assumed, other chains not shown): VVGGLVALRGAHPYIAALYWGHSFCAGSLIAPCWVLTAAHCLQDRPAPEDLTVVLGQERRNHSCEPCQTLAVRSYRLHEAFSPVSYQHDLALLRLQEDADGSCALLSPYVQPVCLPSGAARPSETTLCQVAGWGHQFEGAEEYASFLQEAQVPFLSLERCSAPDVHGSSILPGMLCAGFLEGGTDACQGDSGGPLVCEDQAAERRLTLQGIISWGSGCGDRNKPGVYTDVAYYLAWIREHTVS

| Compound | t½ for dissociation from the β5 site [1] | inhibition at 3 µM ([2]; Homo sapiens, HCT-116, read-out: inhibition of bulk protein turnover) [%] | MDA231 4xUb-Luc Maximal induction [3] [fold] | IC50 [4] [nM] | Enzyme inhibition at 100 μM compound, Thrombin (Thrombin) [%] | Enzyme inhibition at 100 μM compound, Tissue plasminogen activator [5] [%] | IC50 [6] [nM] | IC50 [7] [nM] | CC50 (MDA-MB-231 cells) [nM] | CC50 [8] [nM] | Enzyme inhibition at 100 μM compound, Cathepsin L (Cathepsin L) [%] | Enzyme inhibition at 100 μM compound, Trypsin (Trypsin) [%] | IC50 [9] [nM] | Ki [10] [nM] | IC50 [11] [nM] | Enzyme inhibition at 100 μM compound, Coagulation Factor β-XIIa [12] [%] | accumulation of the 4xUb-Luc reporter, up to ([3]; 8 h, highest effect observed) | inhibition of bulk protein turnover ([2]; HCT116 cells, 3 μM compound) |
| --- | --- | --- | --- | --- | --- | --- | --- | --- | --- | --- | --- | --- | --- | --- | --- | --- | --- | --- |
| CC(C)C[C@H](NC(=O)[C@H](Cc1ccccc1)NC(=O)c1cnccn1)B(O)O [Bortezomib] | ~ 110 min | ~50 | 340±12 |  |  |  |  |  |  |  |  |  |  |  |  |  |  |  |
| Cc1ccc(CNC(=O)[C@H](CCc2ccccc2)NC(=O)[C@H](CCc2ccccc2)NC(=O)[C@H](CCc2ccccc2)NC(=O)c2cnc(C)cn2)cc1 [Compound 1, 5-methyl-N-((S)-1-((S)-1-((S)-1-(4-methylbenzylamino)-1-oxo-4-phenylbutan-2-ylamino)-1-oxo-4-phenylbutan-2-ylamino)-1-oxo-4-phenylbutan-2-yl)pyrazine-2-carboxamide] |  |  | 52±16 | > 100000 | < 50 | < 50 | 28000 | 57000 | 150 ± 23 | 50 to 380 | < 50 | < 50 | 8.9 | 0.5 ± 0.12 | > 100000 | < 50 | approx. 100 fold |  |
| C[C@@]12OC(=O)[C@]1([C@@H](O)[C@@H]1C=CCCC1)NC(=O)[C@@H]2CCCl [ML858] |  |  |  |  |  |  |  |  |  |  |  |  |  |  |  |  |  | comparable |
